Among the test systems are CCRF-CEM leukemia; DU-145 prostate; EKVX NSCLC; HCT-116 colon; K-562 leukemia; KM12 colon; LOX IMVI melanoma; M14 melanoma; MDA-MB-435; SF-295 CNS; SK-MEL-2 melanoma; SK-MEL-5 melanoma; SR leukemia; TK-10 renal; U251 CNS; CAKI-1 renal; HCC-2998 colon; HL-60(TB) leukemia; NCI-H460 lung; BT-549 breast.
Assay in all cases: NCI tumour cell line growth inhibition, 48 h

Structures are written as SMILES.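 Grown in 96-well plates, cells were treated for 48 hours with each compound at five concentrations. Insufficient inhibition: endpoint recorded as highest concentration tested. TGI marks complete inhibition of growth.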

Regarding `CCCC(=O)Oc1ccc2c(C)cc(=O)oc2c1OC(=O)CCC`, the TGI with CCRF-CEM leukemia, in the experiment with DU-145 prostate, in the experiment with EKVX NSCLC, in the experiment on HCT-116 colon, in the experiment on K-562 leukemia and in the experiment on KM12 colon was greater than 100 µM each time. The TGI in the experiment with LOX IMVI melanoma, in the experiment on M14 melanoma, with MDA-MB-435, with SF-295 CNS, in the experiment with SK-MEL-2 melanoma and in the experiment with SK-MEL-5 melanoma was greater than 100 µM throughout. The TGI with SR leukemia, with TK-10 renal and in the experiment on U251 CNS was greater than 100 µM throughout.
Turning to `O=C1CCCCCC1CC(Sc1ccccc1)Sc1ccccc1` (stereo unspecified), the TGI with CAKI-1 renal was greater than 100 µM; in the experiment on CCRF-CEM leukemia, greater than 100 µM; with DU-145 prostate, greater than 100 µM; with EKVX NSCLC, greater than 100 µM; in the experiment with HCC-2998 colon, greater than 100 µM; with HL-60(TB) leukemia it was 52.7 µM. Besides, the TGI in the experiment on K-562 leukemia, in the experiment with KM12 colon, in the experiment with LOX IMVI melanoma, in the experiment on M14 melanoma, with MDA-MB-435 and in the experiment with NCI-H460 lung was greater than 100 µM throughout. Besides, the TGI in the experiment with SF-295 CNS, with SK-MEL-2 melanoma, in the experiment with SK-MEL-5 melanoma, in the experiment on SR leukemia, in the experiment on TK-10 renal and in the experiment on U251 CNS was greater than 100 µM throughout.
As for `COc1ccc(N=Nc2ccc3oc(=O)c(C(=O)Nc4ccc(Cl)cc4)cc3c2)cc1`, the TGI in the experiment with CAKI-1 renal, in the experiment on DU-145 prostate, in the experiment with EKVX NSCLC, in the experiment with HCC-2998 colon, in the experiment on KM12 colon and in the experiment with LOX IMVI melanoma was greater than 10 µM each time. Also, the TGI in the experiment with M14 melanoma, in the experiment on MDA-MB-435, in the experiment with NCI-H460 lung, in the experiment with SF-295 CNS, in the experiment on SK-MEL-2 melanoma and in the experiment with SK-MEL-5 melanoma was greater than 10 µM throughout. Moreover, the TGI in the experiment with SR leukemia, in the experiment with TK-10 renal and in the experiment with U251 CNS was greater than 10 µM each time.
For the compound `Cc1nc(Nc2ccccc2)sc1C(=O)NNc1ccc([N+](=O)[O-])cc1[N+](=O)[O-]`, the TGI in the experiment on CAKI-1 renal was greater than 100 µM; with CCRF-CEM leukemia it was 58.2 µM; in the experiment with EKVX NSCLC it was 71.2 µM; with HCC-2998 colon, greater than 100 µM; with HCT-116 colon, greater than 100 µM; in the experiment on HL-60(TB) leukemia, 41.2 µM. The TGI with K-562 leukemia is 60.1 µM; in the experiment on KM12 colon, greater than 100 µM; in the experiment with LOX IMVI melanoma, 87.9 µM; in the experiment on M14 melanoma, greater than 100 µM; in the experiment with NCI-H460 lung, greater than 100 µM; with SF-295 CNS, greater than 100 µM. Further, the TGI is greater than 100 µM in the experiment with SK-MEL-2 melanoma; 68.5 µM in the experiment with SK-MEL-5 melanoma; 65.7 µM in the experiment on SR leukemia; greater than 100 µM in the experiment on TK-10 renal; greater than 100 µM in the experiment on U251 CNS.
Regarding `CCC1(N=[N+]=[N-])C(=O)c2ccccc2N(c2ccccc2)C1=O` (stereo unspecified), the TGI with CAKI-1 renal, in the experiment on CCRF-CEM leukemia, in the experiment on EKVX NSCLC, in the experiment with HCC-2998 colon, with HCT-116 colon and in the experiment on HL-60(TB) leukemia was greater than 100 µM in each case. Besides, the TGI in the experiment with K-562 leukemia, with KM12 colon, in the experiment on LOX IMVI melanoma, in the experiment with M14 melanoma, with NCI-H460 lung and in the experiment with SF-295 CNS was greater than 100 µM throughout. The TGI in the experiment with SK-MEL-2 melanoma, in the experiment on SK-MEL-5 melanoma, in the experiment on SR leukemia, in the experiment on TK-10 renal and with U251 CNS was greater than 100 µM throughout.
For `CCOC(=O)C1=COC(C)(c2ccccc2)CC1=O` (stereo unspecified), the TGI with BT-549 breast, with CAKI-1 renal, with DU-145 prostate, in the experiment on EKVX NSCLC, with HCC-2998 colon and in the experiment with HCT-116 colon was greater than 100 µM in each case. Moreover, the TGI in the experiment on K-562 leukemia, with KM12 colon, with M14 melanoma, in the experiment with MDA-MB-435, in the experiment with NCI-H460 lung and in the experiment on SF-295 CNS was greater than 100 µM throughout. Moreover, the TGI in the experiment with SK-MEL-2 melanoma, with SK-MEL-5 melanoma, with TK-10 renal and in the experiment on U251 CNS was greater than 100 µM in each case.
For `CCCCCCCCCCCC(=O)c1c(O)cccc1O`, the TGI in the experiment with CAKI-1 renal came to 56.7 µM; with CCRF-CEM leukemia it was 62.8 µM; in the experiment on EKVX NSCLC, 33.6 µM; in the experiment with HCC-2998 colon, 34.3 µM; with HCT-116 colon, 33.1 µM; with HL-60(TB) leukemia it was 43.6 µM. For the same compound, the TGI is greater than 100 µM in the experiment with K-562 leukemia; 30 µM in the experiment on KM12 colon; 33.7 µM with LOX IMVI melanoma; 33.3 µM in the experiment on M14 melanoma; 42.9 µM in the experiment with NCI-H460 lung; 31.4 µM in the experiment on SF-295 CNS. Moreover, the TGI in the experiment with SK-MEL-2 melanoma amounted to 30 µM; with SK-MEL-5 melanoma, 26.7 µM; with SR leukemia, 49 µM; in the experiment on TK-10 renal it was 92.4 µM; in the experiment on U251 CNS it was 34 µM.
For the compound `C[C@@H]1OC(=O)C[C@H]2CC(=O)N(CCC3CN(S(=O)(=O)C(F)(F)F)c4ccccc43)C[C@@H]21` (stereo partly specified), the TGI in the experiment on CAKI-1 renal, with CCRF-CEM leukemia, in the experiment with DU-145 prostate, with EKVX NSCLC, with HCC-2998 colon and in the experiment with HCT-116 colon was greater than 100 µM throughout. Besides, the TGI in the experiment with K-562 leukemia, in the experiment with KM12 colon, with M14 melanoma, in the experiment on MDA-MB-435, in the experiment with NCI-H460 lung and in the experiment on SF-295 CNS was greater than 100 µM each time. The TGI with SK-MEL-2 melanoma, in the experiment on SK-MEL-5 melanoma, in the experiment with SR leukemia and in the experiment with U251 CNS was greater than 100 µM in each case.
